Measured values published in patent US9856279B2 (AGIOS PHARMACEUTICALS, INC, priority 2011, dated 2018).

Each compound was assayed against IDH1 R132H (Homo sapiens, UniProt O75874, R132H) (assay: Assay for IDH1 R132H inhibitors (NADPH/aKG, resazurin detection)). Conditions: Table 3; enzyme assay, 50 minutes at room temperature; read-out: IC50 (IDH1 R132H Inhibition).
Chain of IDH1 R132H (O75874 whole entry R132H): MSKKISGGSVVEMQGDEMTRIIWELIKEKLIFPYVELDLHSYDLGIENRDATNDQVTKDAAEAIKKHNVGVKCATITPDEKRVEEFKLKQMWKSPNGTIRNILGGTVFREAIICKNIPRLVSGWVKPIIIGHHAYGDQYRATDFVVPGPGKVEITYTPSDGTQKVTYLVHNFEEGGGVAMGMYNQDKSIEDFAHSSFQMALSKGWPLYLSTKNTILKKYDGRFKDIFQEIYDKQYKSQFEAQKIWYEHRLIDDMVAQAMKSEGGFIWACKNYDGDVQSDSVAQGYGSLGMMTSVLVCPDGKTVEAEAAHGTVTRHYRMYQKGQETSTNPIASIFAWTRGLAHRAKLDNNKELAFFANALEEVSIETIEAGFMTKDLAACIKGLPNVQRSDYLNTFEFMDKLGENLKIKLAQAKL
Type: biochemical
Method in brief: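 Compound added to substrate mix (8 uM NADPH, 2 mM aKG), then enzyme mix (0.2 μg/ml IDH1 R132H); 50 min RT in 20 mM Tris pH 7.5, 150 mM NaCl, 10 mM MgCl2, 0.03% BSA. Resazurin detection mix (30 μM) 5 min RT; resorufin fluorescence Ex544/Em590.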
With `COCCC(=O)N1CCN(c2nc(C3CC3)c(-c3ccsc3)c(C)c2C#N)C[C@H]1C` [Compound 262, (R)-6-cyclopropyl-2-(4-(3-methoxypropanoyl)-3-methylpiperazin-1-yl)-4-methyl-5-(thiophen-3-yl)nicotinonitrile] the IC50 was ≤ 1000 nM.

Same assay, conditions: enzyme assay of Example 12; read-out: IDH1R132H IC50
For `COCCC(=O)N1CCN(c2nc(C3CC3)c(-c3cccs3)cc2C#N)C[C@H]1C` [Compound 273, (R)-6-cyclopropyl-2-(4-(3-methoxypropanoyl)-3-methylpiperazin-1-yl)-5-(thiophen-2-yl)nicotinonitrile], the IC50 was 500 to 1000 nM.
For `COCCC(=O)N1CCN(c2nc(C3CC3)c(OCc3ccc(OC)cc3)cc2C#N)C[C@H]1C` [Compound 281, (R)-6-cyclopropyl-5-(4-methoxybenzyloxy)-2-(4-(3-methoxypropanoyl)-3-methylpiperazin-1-yl)nicotinonitrile], the IC50 was 500 to 1000 nM.
`COCCC(=O)N1CCN(c2nc(C3CC3)c(-c3ccc(-c4ccccc4)c(F)c3)c(C)c2C#N)C[C@H]1C` [Compound 282, (R)-6-cyclopropyl-5-(2-fluorobiphenyl-4-yl)-2-(4-(3-methoxypropanoyl)-3-methylpiperazin-1-yl)-4-methylnicotinonitrile] showed an IC50 of 500 to 1000 nM.
`COCCC(=O)N1CCN(c2nc(C3CC3)c(-c3cccc(NC(C)=O)c3)cc2C#N)C[C@H]1C` [Compound 284, (R)—N-(3-(5-cyano-2-cyclopropyl-6-(4-(3-methoxypropanoyl)-3-methylpiperazin-1-yl)pyridin-3-yl)phenyl)acetamide] showed an IC50 of 500 to 1000 nM.
`COCCC(=O)N1CCN(c2nc(C3CC3)c(-c3ccc4cc[nH]c4c3)cc2C#N)C[C@H]1C` [Compound 289, (R)-6-cyclopropyl-5-(1H-indol-6-yl)-2-(4-(3-methoxypropanoyl)-3-methylpiperazin-1-yl)nicotinonitrile] was tested, and the IC50 was < 500 nM.
For `COCCC(=O)N1CCN(c2nc(C3CC3)c(-c3ccc(F)c4ccccc34)cc2C#N)C[C@H]1C` [Compound 290, (R)-6-cyclopropyl-5-(4-fluoronaphthalen-1-yl)-2-(4-(3-methoxypropanoyl)-3-methylpiperazin-1-yl)nicotinonitrile], the IC50 was < 500 nM.
For `COCCC(=O)N1CCN(c2nc(C3CC3)c(-c3cccc(CC(=O)OC)c3)cc2C#N)C[C@H]1C` [Compound 291, (R)-methyl 2-(3-(5-cyano-2-cyclopropyl-6-(4-(3-methoxypropanoyl)-3-methylpiperazin-1-yl)pyridin-3-yl)phenyl)acetate], the IC50 was 500 to 1000 nM.
`COCCC(=O)N1CCN(c2nc(C3CC3)c(-c3ccc(F)cc3)c(COC)c2C#N)C[C@H]1C` [Compound 298, (R)-6-cyclopropyl-5-(4-fluorophenyl)-4-(methoxymethyl)-2-(4-(3-methoxypropanoyl)-3-methylpiperazin-1-yl)nicotinonitrile] was tested, and the IC50 was 500 to 1000 nM.
In the case of `Cc1c(C#N)c(N2CCN(C(=O)CC(F)(F)F)[C@H](C3CC3)C2)nc(C2CC2)c1-c1ccc(F)cc1` [Compound 300, (R)-6-cyclopropyl-2-(3-cyclopropyl-4-(3,3,3-trifluoropropanoyl)piperazin-1-yl)-5-(4-fluorophenyl)-4-methylnicotinonitrile], the IC50 is reported as 500 to 1000 nM.
`COCCC(=O)N1CCN(c2nc(C3CC3)c(-c3cccc(C(N)=O)c3)cc2C#N)C[C@H]1C` [Compound 305, (R)-3-(5-cyano-2-cyclopropyl-6-(4-(3-methoxypropanoyl)-3-methylpiperazin-1-yl)pyridin-3-yl)benzamide] was tested, and the IC50 was 500 to 1000 nM.
`COCCC(=O)N1CCN(c2nc(C3CC3)c(-c3cccc(CO)c3)cc2C#N)C[C@H]1C` [Compound 306, (R)-6-cyclopropyl-5-(3-(hydroxymethyl)phenyl)-2-(4-(3-methoxypropanoyl)-3-methylpiperazin-1-yl)nicotinonitrile] gave an IC50 of 500 to 1000 nM.
In the case of `COCCC(=O)N1CCN(c2nc(C3CC3)c(OC(C)c3cccc(Cl)c3)cc2C#N)C[C@H]1C` (stereo partly drawn) [Compound 310, 5-(1-(3-chlorophenyl)ethoxy)-6-cyclopropyl-2-((R)-4-(3-methoxypropanoyl)-3-methylpiperazin-1-yl)nicotinonitrile], the IC50 is reported as 500 to 1000 nM.
`COCCC(=O)N1CCN(c2nc(C3CC3)c(OC(C)c3ccc(Cl)cc3)cc2C#N)C[C@H]1C` (stereo partly drawn) [Compound 311, 5-(1-(4-chlorophenyl)ethoxy)-6-cyclopropyl-2-((R)-4-(3-methoxypropanoyl)-3-methylpiperazin-1-yl)nicotinonitrile] was tested, and the IC50 was 500 to 1000 nM.
Work on `COCCC(=O)N1CCN(c2nc(C3CC3)c(-c3ccc(N)nc3)cc2C#N)C[C@H]1C` [Compound 314, (R)-6′-amino-2-cyclopropyl-6-(4-(3-methoxypropanoyl)-3-methylpiperazin-1-yl)-3,3′-bipyridine-5-carbonitrile] yielded an IC50 of 500 to 1000 nM.
`COCCC(=O)N1CCN(c2nc(C3CC3)c(-c3c(OC)cccc3OC)cc2C#N)C[C@H]1C` [Compound 316, (R)-6-cyclopropyl-5-(2,6-dimethoxyphenyl)-2-(4-(3-methoxypropanoyl)-3-methylpiperazin-1-yl)nicotinonitrile] showed an IC50 of 500 to 1000 nM.
For `COCCC(=O)N1CCN(c2nc(C3CC3)c(-c3ccc4[nH]cc(C(=O)C(F)(F)F)c4c3)cc2C#N)C[C@H]1C` [Compound 317, (R)-6-cyclopropyl-2-(4-(3-methoxypropanoyl)-3-methylpiperazin-1-yl)-5-(3-(2,2,2-trifluoroacetyl)-1H-indol-5-yl)nicotinonitrile], the IC50 was 500 to 1000 nM.
In the case of `COCCC(=O)N1CCN(c2nc(C3CC3)c(-c3cncc(C)c3)c(C)c2C#N)C[C@H]1C` [Compound 318], the IC50 is reported as < 500 nM.
`COCCC(=O)N1CCN(c2nc(C3CC3)c(-c3ccc(S(C)(=O)=O)cc3)c(C)c2C#N)C[C@H]1C` [Compound 319, (R)-6-cyclopropyl-5-(4-methanesulfonyl-phenyl)-2-[4-(3-methoxy-propionyl)-3-methyl-piperazin-1-yl]-4-methyl-nicotinonitrile] was tested, and the IC50 was < 500 nM.
For `COCCC(=O)N1CCN(c2nc(C3CC3)c(-c3cccc(COC)c3)c(C)c2C#N)C[C@H]1C` [Compound 322, (R)-6-cyclopropyl-5-(3-methoxymethyl-phenyl)-2-[4-(3-methoxy-propionyl)-3-methyl-piperazin-1-yl]-4-methyl-nicotinonitrile], the IC50 was < 500 nM.
Compound `COCCC(=O)N1CCN(c2nc(C3CC3)c(-c3cccc(OC)c3F)c(C)c2C#N)C[C@H]1C` [Compound 324, (R)-6-cyclopropyl-5-(2-fluoro-3-methoxy-phenyl)-2-[4-(3-methoxy-propionyl)-3-methyl-piperazin-1-yl]-4-methyl-nicotinonitrile] has an IC50 of 500 to 1000 nM.
Compound `CNC(=O)c1cccc(-c2c(C3CC3)nc(N3CCN(C(=O)CCOC)[C@H](C)C3)c(C#N)c2C)c1` [Compound 327, (R)-3-{5-cyano-2-cyclopropyl-6-[4-(3-methoxy-propionyl)-3-methyl-piperazin-1-yl]-4-methyl-pyridin-3-yl}-N-methyl-benzamide] has an IC50 of 500 to 1000 nM.
`COCCC(=O)N1CCN(c2nc(C3CC3)c(-c3cccnc3OC)cc2C#N)C[C@H]1C` [Compound 328, (R)-2-cyclopropyl-2′-methoxy-6-[4-(3-methoxy-propionyl)-3-methyl-piperazin-1-yl]-[3,3]bipyridinyl-5-carbonitrile] was tested, and the IC50 was < 500 nM.
For `COCCC(=O)N1CCN(c2nc(C3CC3)c(-c3cccc(S(C)(=O)=O)c3)c(C)c2C#N)C[C@H]1C` [Compound 329, (R)-6-cyclopropyl-5-(3-methanesulfonyl-phenyl)-2-[4-(3-methoxy-propionyl)-3-methyl-piperazin-1-yl]-4-methyl-nicotinonitrile], the IC50 was 500 to 1000 nM.
`CNS(=O)(=O)c1ccc(-c2c(C3CC3)nc(N3CCN(C(=O)CCOC)[C@H](C)C3)c(C#N)c2C)cc1` [Compound 331, (R)-4-{5-cyano-2-cyclopropyl-6-[4-(3-methoxy-propionyl)-3-methyl-piperazin-1-yl]-4-methyl-pyridin-3-yl}-N-methyl-benzenesulfonamide] was tested, and the IC50 was < 500 nM.
Compound `COCCC(=O)N1CCN(c2nc(C3CC3)c(-c3cccc(C(=O)N4CCCC4)c3)c(C)c2C#N)C[C@H]1C` [Compound 332, (R)-6-cyclopropyl-2-[4-(3-methoxy-propionyl)-3-methyl-piperazin-1-yl]-4-methyl-5-[3-(pyrrolidine-1-carbonyl)-phenyl]-nicotinonitrile] has an IC50 of 500 to 1000 nM.
For `COCCC(=O)N1CCN(c2nc(C3CC3)c(-c3ccc(C(=O)N4CCCC4)cc3)c(C)c2C#N)C[C@H]1C` [Compound 333, (R)-6-cyclopropyl-2-[4-(3-methoxy-propionyl)-3-methyl-piperazin-1-yl]-4-methyl-5-[4-(pyrrolidine-1-carbonyl)-phenyl]-nicotinonitrile], the IC50 was < 500 nM.
`CCc1ccccc1-c1cc(C#N)c(N2CCN(C(=O)CCOC)[C@H](C)C2)nc1C1CC1` [Compound 334, (R)-6-cyclopropyl-5-(2-ethyl-phenyl)-2-[4-(3-methoxy-propionyl)-3-methyl-piperazin-1-yl]-nicotinonitrile] showed an IC50 of 500 to 1000 nM.
With `COCCC(=O)N1CCN(c2nc(C3CC3)c(-c3ccc(OCC4CC4)cc3)c(C)c2C#N)C[C@H]1C` [Compound 336, (R)-6-cyclopropyl-5-(4-cyclopropylmethoxy-phenyl)-2-[4-(3-methoxy-propionyl)-3-methyl-piperazin-1-yl]-4-methyl-nicotinonitrile] the IC50 was 500 to 1000 nM.
With `CCCOc1ccc(-c2c(C3CC3)nc(N3CCN(C(=O)CCOC)[C@H](C)C3)c(C#N)c2C)cc1` [Compound 337, (R)-6-cyclopropyl-2-[4-(3-methoxy-propionyl)-3-methyl-piperazin-1-yl]-4-methyl-5-(4-propoxy-phenyl)-nicotinonitrile] the IC50 was 500 to 1000 nM.
`COCCC(=O)N1CCN(c2nc(C3CC3)c(-c3ccccc3CCOC)cc2C#N)C[C@H]1C` [Compound 338, (R)-6-cyclopropyl-5-[2-(2-methoxy-ethyl)-phenyl]-2-[4-(3-methoxy-propionyl)-3-methyl-piperazin-1-yl]-nicotinonitrile] was tested, and the IC50 was < 500 nM.
